{
  "source": "paper PMC7504088",
  "about": "““Clicking” an Ionic Liquid to a Potent Antimicrobial Peptide: On the Route towards Improved Stability” (International Journal of Molecular Sciences, 2020)",
  "key": {"[1]": {"test_system": "K. pneumoniae KP010 (MDR clinical isolate)", "assay_type": "cell-based, Klebsiella pneumoniae", "procedure": "(§1) Both the conjugate MeIm-3.1-PP4 and its parent peptide 3.1-PP4 were next screened for their antibacterial activity. Minimum inhibitory concentration (MIC) values were determined following the Clinical and Laboratory Standards Institute (CLSI) protocol, against Gram-positive (Staphylococcus aureus and Enterococcus faecalis), and Gram-negative (Pseudomonas aeruginosa, Escherichia coli and Klebsiella pneumoniae) bacteria, including both reference strains (American Type Culture Collection, ATCC), and multidrug-resistant (MDR) clinical isolates. […] Relevantly, in most cases, MIC values matched the minimum bactericidal concentration (MBC) values, highlighting a bactericidal action for both MeIm-3.1-PP4 and its parent peptide.\n(§2) The MIC of the test compounds was determined according to the CLSI guidelines. Briefly, the compounds were tested in the 1–1024 µg/mL concentration range, using the microdilution method in cation-adjusted Mueller-Hinton broth (MHB II) against reference strains of P. aeruginosa ATCC 27853, E. coli ATCC 25922, S. aureus ATCC 25923, and Enterococcus faecalis ATCC 29212. MIC values were also determined against MDR clinical isolates (antibiotic resistance patterns given in Supplementary Materials, Table S1) of P. aeruginosa (PA004, Pa3, Pa4), E. coli (Ec2, EC001, EC002, EC003), K. pneumoniae (KP004, KP010), S. aureus (SA007), and Enterococcus faecalis (Ef1). Along with the MIC values, MBC values were also determined as previously reported."}, "[2]": {"test_system": "K. pneumoniae KP004 (MDR clinical isolate)", "assay_type": "cell-based, Klebsiella pneumoniae", "procedure": "as §1, §2"}, "[3]": {"test_system": "S. aureus SA007 (MDR clinical isolate)", "assay_type": "cell-based, Staphylococcus aureus", "procedure": "as §1, §2"}, "S. aureus ATCC 25923": {"test_system": "S. aureus ATCC 25923", "assay_type": "cell-based, Staphylococcus aureus", "procedure": "as §1, §2"}, "[4]": {"test_system": "HaCaT human epidermal keratinocytes", "assay_type": "cell-based", "conditions": "24 h", "procedure": "(§3) Since this type of IL-AMP conjugate is being developed for its potential interest to address infected skin lesions, a preliminary assessment of the toxicity of both the conjugate and the parent peptide towards HaCaT human epidermal keratinocytes was carried out by the 3-(4,5-dimethylthiazol-2-yl)-2,5-diphenyltetrazolium bromide (MTT) assay, as previously described by us. […] This activity was assessed in two different ways: (i) inhibition of biofilm formation, and (ii) effect on a preformed biofilm. For evaluation of the inhibition of biofilm formation, both conjugate and parent peptide were tested at MIC and sub-inhibitory concentrations (½×MIC and at ¼×MIC) following previously established procedures, and the mass of biofilm formed at these concentrations was assessed through the crystal violet assay. […] Relevantly, the absorbance measured for the control (absence of test compounds) provides confirmation that the bacterial strain used is a good biofilm producer.\nThe cytotoxicity of peptides to HaCat cells was evaluated using the standard MTT assay. Briefly, cells were seeded at a density of 4 × 10^4 cells/mL, respectively, in 96-well plates and incubated at 37 °C in a 5% CO2 atmosphere. […] Absorbance was read at 570 nm in FlexStation®3 Multi-Mode Microplate Reader (Molecular Devices, San Jose, CA, USA)."}, "E. coli ATCC 25922": {"test_system": "E. coli ATCC 25922", "assay_type": "cell-based, Escherichia coli", "procedure": "as §1, §2"}, "[5]": {"test_system": "E. coli EC001 (MDR clinical isolate)", "assay_type": "cell-based, Escherichia coli", "procedure": "as §1, §2"}, "[6]": {"test_system": "E. coli EC002 (MDR clinical isolate)", "assay_type": "cell-based, Escherichia coli", "procedure": "as §1, §2"}, "[7]": {"test_system": "E. coli EC003 (MDR clinical isolate)", "assay_type": "cell-based, Escherichia coli", "procedure": "as §1, §2"}, "[8]": {"test_system": "E. coli Ec2 (MDR clinical isolate)", "assay_type": "cell-based, Escherichia coli", "procedure": "as §1, §2"}, "tyrosinase": {"test_system": "tyrosinase", "experiment": "in vitro", "assay_type": "in vitro ADME", "conditions": "mushroom (Agaricus bisporus), isolated enzyme, pH 6.8", "from_the_text": "One of our main motivations to explore IL-peptide conjugates concerns improving the enzymatic stability of the peptide moiety, as poor pharmacokinetics is a major obstacle towards clinical translation of AMP and other bioactive peptides, even when topical applications are envisaged. For instance, in a non-healing infected wound, peptides are vulnerable to modification by endogenous (e.g., tyrosinase, elastase, metalloproteinases) and exogenous (produced by colonizing microbes) enzymes in the wound site. […] The samples were collected at different time points, for 24 h, and were analyzed by HPLC. […]\nThe IL-peptide conjugate and the parent peptide were both incubated at a final concentration of 10 mM in phosphate buffer (pH 6.8), with the enzyme tyrosinase (CAS:9002-10-2; T3824-250KU) at 18 U/mL, for 24 h at 37 °C. […] The supernatant was then analyzed by HPLC, using a Hitachi-Merck LaChrom Elite system with a reverse-phase C18 column (125 × […] and 5 µm pore size). […]\nResults from peptide stability were expressed as the variation of the % of starting compound over time (mean ± SD). Data were analyzed in GraphPad Prism 8.0.1 Software using two-way analysis of variance (ANOVA) followed by Tukey’s multiple comparison test. […]"}, "[9]": {"test_system": "K. pneumoniae KP010 biofilms", "experiment": "Inhibition of biofilm formation, crystal violet assay", "assay_type": "cell-based, Klebsiella pneumoniae", "conditions": "KP010, TSB, crystal violet absorbance at 595 nm, three independent experiments in triplicate", "procedure": "as §3\nThe ability of the test compounds to inhibit the biofilm formation by KP010 (a MDR clinical isolate of K. pneumoniae) was assessed at the respective MIC, ^1/2×MIC and ^1/4×MIC values in tryptic soy broth (TSB) using the crystal violet assay as previously reported. […]\nFigure 1 Effects of 3.1-PP4 and MeIm-3.1-PP4 on formation of K. pneumoniae KP010 biofilms (biomass quantification by crystal violet absorbance at 595 nm). […]"}, "[10]": {"test_system": "preformed biofilms of KP010 (MDR clinical isolate of K. pneumoniae)", "experiment": "Effect on preformed biofilms, OD600 of planktonic phase", "assay_type": "cell-based, Klebsiella pneumoniae", "conditions": "20×MIC, 24 h at 37 °C, untreated biofilms 0.740 ± 0.047, mean ± SD of three independent experiments in triplicate", "procedure": "Biofilm proliferation was determined by measuring the optical density (OD) of the planktonic phase of the biofilms, both treated with the test compounds and the untreated control. […] This improvement, afforded by the insertion of the imidazolium motif, is in line with previous reports of enhanced antibacterial activity when combining imidazolium ILs with non-peptide antibiotics, like ampicillin, including against resistant bacterial strains.\nTo assess the effects of test compounds on 48 h preformed biofilms of KP010, the biofilms were first grown in TSB from a starting inoculum of 1 × 10^6 CFU/mL in 96-well microtiter plates. After 48 h of incubation at 37 °C, the planktonic cells were removed, and the wells were rinsed and filled with the test compound at a 20× MIC concentration. The optical density at 600 nm was measured at time 0 and after incubation for 24 h at 37 °C. The reduction in the biofilm proliferation was calculated in comparison to the respective non-treated biofilms. Three independent experiments were performed in triplicate."}, "[11]": {"test_system": "P. aeruginosa PA004 (MDR clinical isolate)", "assay_type": "cell-based, Pseudomonas aeruginosa", "procedure": "as §1, §2"}, "[12]": {"test_system": "P. aeruginosa Pa4 (MDR clinical isolate)", "assay_type": "cell-based, Pseudomonas aeruginosa", "procedure": "as §1, §2"}, "P. aeruginosa ATCC 27853": {"test_system": "P. aeruginosa ATCC 27853", "assay_type": "cell-based, Pseudomonas aeruginosa", "procedure": "as §1, §2"}, "[13]": {"test_system": "P. aeruginosa Pa3 (MDR clinical isolate)", "assay_type": "cell-based, Pseudomonas aeruginosa", "procedure": "as §1, §2"}, "[14]": {"test_system": "Enterococcus faecalis Ef1 (MDR clinical isolate)", "assay_type": "cell-based", "procedure": "as §1, §2"}, "[15]": {"test_system": "Enterococcus faecalis ATCC 29212", "assay_type": "cell-based", "procedure": "as §1, §2"}},
  "note": "Marks after values point to notes of the source that are not given here. Ends that are not written are not given here. Peptide text beside a SMILES is read from it. * marks the point of attachment. X1 = C[n+]1ccn(Cc2cn(CC(=O)*)nn2)c1",
  "data": [
    {"compound": "CC(C)C[C@H](NC(=O)[C@H](CCCCN)NC(=O)[C@H](CCCCN)NC(=O)Cn1cc(Cn2cc[n+](C)c2)nn1)C(=O)N[C@@H](CC(C)C)C(=O)N[C@@H](CCCCN)C(=O)N[C@@H](Cc1c[nH]c2ccccc12)C(=O)N[C@@H](CC(C)C)C(=O)N[C@@H](CC(C)C)C(=O)N[C@@H](CCCCN)C(=O)N[C@@H](CC(C)C)C(=O)N[C@@H](CC(C)C)C(=O)N[C@@H](CCCCN)C(=O)N[C@H](C(=O)N[C@H](C(=O)N[C@@H](CCCCN)C(=O)N[C@@H](CO)C(N)=O)[C@@H](C)O)[C@@H](C)O", "note": "[MeIm-3.1-PP4] (X1-KKLLKWLLKLLKTTKS-NH2)", "values": [
      {"measurement": "MIC", "setting": "[1]", "result": "6.2 (2.9) μg/mL"},
      {"measurement": "MIC", "setting": "[2]", "result": "49.6 (23.1) μg/mL"},
      {"measurement": "MIC", "setting": "[3]", "result": "12.4 (5.8) μg/mL"},
      {"measurement": "MIC", "setting": "S. aureus ATCC 25923", "result": "24.8 (11.6) ^a μg/mL"},
      {"measurement": "IC50", "setting": "[4]", "result": "19.4 ± 0.2", "unit": "µM"},
      {"measurement": "MIC", "setting": "E. coli ATCC 25922", "result": "0.8 (0.4) μg/mL"},
      {"measurement": "MIC", "setting": "[5]", "result": "3.1 (1.4) μg/mL"},
      {"measurement": "MIC", "setting": "[6]", "result": "1.5 (0.7) μg/mL"},
      {"measurement": "MIC", "setting": "[7]", "result": "1.5 (0.7) μg/mL"},
      {"measurement": "MIC", "setting": "[8]", "result": "1.5 (0.7) μg/mL"},
      {"measurement": "remaining at 24 h, 10 mM", "setting": "tyrosinase", "result": "~84", "unit": "%"},
      {"measurement": "biofilm formed at MIC", "setting": "[9]; at MIC", "result": "only a little amount of biofilm was formed"},
      {"measurement": "biofilm biomass formed at sub-inhibitory concentrations", "setting": "[9]; at ½×MIC and ¼×MIC", "result": "lower than the control"},
      {"measurement": "OD600 of planktonic phase of peptide-treated biofilms", "setting": "[10]", "result": "0.497± 0.050"},
      {"measurement": "MIC", "setting": "[11]", "result": "3.1 (1.4) μg/mL"},
      {"measurement": "MIC", "setting": "[12]", "result": "0.8 (0.4) μg/mL"},
      {"measurement": "MIC", "setting": "P. aeruginosa ATCC 27853", "result": "1.5 (0.7) μg/mL"},
      {"measurement": "MIC", "setting": "[13]", "result": "1.5 (0.7) μg/mL"},
      {"measurement": "MIC", "setting": "[14]", "result": "3.1 (1.4) μg/mL"},
      {"measurement": "MIC", "setting": "[15]", "result": "99.3 (46.3) μg/mL"}
    ]},
    {"compound": "KKLLKWLLKLLKTTKS-NH2 [3.1-PP4]", "values": [
      {"measurement": "MIC", "setting": "[1]", "result": "2.3 (1.2) μg/mL"},
      {"measurement": "MIC", "setting": "[2]", "result": "2.3 (1.2) μg/mL"},
      {"measurement": "MIC", "setting": "[3]", "result": "10.3 (5.3) μg/mL"},
      {"measurement": "MIC", "setting": "S. aureus ATCC 25923", "result": "10.3 (5.3) ^a μg/mL"},
      {"measurement": "IC50", "setting": "[4]", "result": "34.2 ± 0.5", "unit": "µM"},
      {"measurement": "MIC", "setting": "E. coli ATCC 25922", "result": "1.3 (0.7) μg/mL"},
      {"measurement": "MIC", "setting": "[5]", "result": "1.3 (0.7) μg/mL"},
      {"measurement": "MIC", "setting": "[6]", "result": "1.3 (0.7) μg/mL"},
      {"measurement": "MIC", "setting": "[7]", "result": "0.6 (0.3) μg/mL"},
      {"measurement": "MIC", "setting": "[8]", "result": "1.3 (0.7) μg/mL"},
      {"measurement": "MIC", "setting": "[11]", "result": "1.3 (0.7) μg/mL"},
      {"measurement": "MIC", "setting": "[12]", "result": "1.3 (0.7) μg/mL"},
      {"measurement": "MIC", "setting": "P. aeruginosa ATCC 27853", "result": "2.3 (1.2) μg/mL"},
      {"measurement": "MIC", "setting": "[13]", "result": "1.3 (0.7) μg/mL"},
      {"measurement": "MIC", "setting": "[14]", "result": "2.3 (1.2) ^a μg/mL"},
      {"measurement": "MIC", "setting": "[15]", "result": "41.3 (21.3) μg/mL"}
    ]}
  ]
}
